Test results published in ChEMBL document CHEMBL2074162, “P-glycoprotein-mediated transcellular transport of MDR-reversing agents” (FEBS Lett, 1993).

Target: ATP-dependent translocase ABCB1 (Homo sapiens, UniProt P08183)
Test: TP_TRANSPORTER: transepithelial transport (basal to apical) in MDR1-expressing LLC-PK1 cells
Assay type: functional, cell-based
Conditions: pig

ATP-dependent translocase ABCB1, sequence (P08183 whole entry): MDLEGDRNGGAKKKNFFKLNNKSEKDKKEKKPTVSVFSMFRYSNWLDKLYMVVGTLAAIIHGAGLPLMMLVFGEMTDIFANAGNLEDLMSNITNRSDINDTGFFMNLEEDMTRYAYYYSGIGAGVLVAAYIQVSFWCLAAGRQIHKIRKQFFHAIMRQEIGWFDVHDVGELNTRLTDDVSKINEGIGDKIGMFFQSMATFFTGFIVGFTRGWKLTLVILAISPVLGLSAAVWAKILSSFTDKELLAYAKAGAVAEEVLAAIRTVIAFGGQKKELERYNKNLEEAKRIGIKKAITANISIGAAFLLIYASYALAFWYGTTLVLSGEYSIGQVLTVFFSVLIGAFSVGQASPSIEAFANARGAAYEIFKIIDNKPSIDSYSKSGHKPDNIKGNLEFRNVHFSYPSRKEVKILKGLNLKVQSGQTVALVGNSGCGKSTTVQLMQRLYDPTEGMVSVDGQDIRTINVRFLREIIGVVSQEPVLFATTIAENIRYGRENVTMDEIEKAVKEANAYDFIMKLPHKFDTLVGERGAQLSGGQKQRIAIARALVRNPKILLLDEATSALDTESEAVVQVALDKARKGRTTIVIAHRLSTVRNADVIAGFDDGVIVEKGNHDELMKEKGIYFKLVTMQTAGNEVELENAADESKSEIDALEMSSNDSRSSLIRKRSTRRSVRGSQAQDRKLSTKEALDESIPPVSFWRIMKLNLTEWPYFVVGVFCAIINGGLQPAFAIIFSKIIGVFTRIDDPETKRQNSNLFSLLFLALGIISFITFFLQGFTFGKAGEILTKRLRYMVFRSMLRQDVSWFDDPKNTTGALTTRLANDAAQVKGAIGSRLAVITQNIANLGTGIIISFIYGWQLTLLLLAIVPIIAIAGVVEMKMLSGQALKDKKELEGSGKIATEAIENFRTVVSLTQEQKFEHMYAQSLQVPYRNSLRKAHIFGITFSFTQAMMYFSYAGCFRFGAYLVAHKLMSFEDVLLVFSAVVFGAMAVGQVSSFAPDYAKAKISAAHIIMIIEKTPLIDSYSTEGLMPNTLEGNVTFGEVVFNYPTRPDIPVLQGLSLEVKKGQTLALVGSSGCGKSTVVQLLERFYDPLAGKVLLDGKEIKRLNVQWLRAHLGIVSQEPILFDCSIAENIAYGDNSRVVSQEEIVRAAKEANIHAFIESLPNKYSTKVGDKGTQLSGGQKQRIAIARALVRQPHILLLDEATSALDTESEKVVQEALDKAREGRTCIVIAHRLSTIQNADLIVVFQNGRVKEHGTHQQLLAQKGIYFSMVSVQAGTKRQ

SMILES	Activity
CCOC(=O)C1=C(C)NC(C)=C(C(=O)OCCNC(=O)c2ccc(N=[N+]=[N-])cc2)C1c1ccccc1C(F)(F)F (configuration not stated) [AZIDOPINE]	substrate [+]
COc1ccc([C@@H]2Sc3ccccc3N(CCN(C)C)C(=O)[C@@H]2OC(C)=O)cc1 [DILTIAZEM]	substrate [+]
